This is an account of results in US20100144886A1, “METHOD FOR TREATING PULMONARY ARTERIAL HYPERTENSION” (AGI Therapeutics Research Limited, priority 2006, published 2010).

The test system of assay [1] is T1, melatonin ML-1.
T1 construct: other: chicken brain; other: at 100×10^−7 M
The assay is described as follows: Melatonin ML1 binding affinity. Also on record: species or system chicken. As to the method:
(§1) Each of those receptors was analyzed by methods known in the art. Initial assessment of binding at 100×10^−7 M (10 micro molar) was performed in duplicate.

The target of the next assay is Na channel. As to the kind of experiment: Na channel binding. The text has this: […]. […] […].
Those results are summarized at Table 9.

In another assay the target is 5-HT1D receptor (Homo sapiens, UniProt P28221). Conditions: at 100×10^−7 M. Here is the method:
as §1

The target of a further assay is 5-HT6 receptor (Homo sapiens, UniProt P50406). Conditions: at 100×10^−7 M. As to the method:
as §1

In the next assay the target is 5-HT5A receptor (Homo sapiens, UniProt P47898). Conditions: at 100×10^−7 M. Here is the method: as §1
Sequence of 5-HT5A receptor (P47898 whole entry): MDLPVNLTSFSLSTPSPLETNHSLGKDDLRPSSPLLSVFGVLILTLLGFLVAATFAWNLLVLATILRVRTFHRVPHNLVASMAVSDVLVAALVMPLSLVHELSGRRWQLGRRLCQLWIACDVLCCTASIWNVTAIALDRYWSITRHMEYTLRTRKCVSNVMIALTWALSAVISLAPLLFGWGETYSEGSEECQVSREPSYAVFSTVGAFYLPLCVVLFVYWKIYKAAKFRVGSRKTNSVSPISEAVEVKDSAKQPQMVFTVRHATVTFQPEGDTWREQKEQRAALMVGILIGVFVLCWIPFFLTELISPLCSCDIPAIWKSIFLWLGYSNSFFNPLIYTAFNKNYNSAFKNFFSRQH
For assay [2], the target named is T2, 5-HT2B receptor (Homo sapiens, UniProt P41595). Here is the method:
as §1

The target of a further assay is 5-HT4E receptor (Homo sapiens, UniProt Q13639). Conditions: at 100×10^−7 M. As to the method: as §1
Sequence of 5-HT4E receptor (Q13639 1-378 isoform Q13639-5): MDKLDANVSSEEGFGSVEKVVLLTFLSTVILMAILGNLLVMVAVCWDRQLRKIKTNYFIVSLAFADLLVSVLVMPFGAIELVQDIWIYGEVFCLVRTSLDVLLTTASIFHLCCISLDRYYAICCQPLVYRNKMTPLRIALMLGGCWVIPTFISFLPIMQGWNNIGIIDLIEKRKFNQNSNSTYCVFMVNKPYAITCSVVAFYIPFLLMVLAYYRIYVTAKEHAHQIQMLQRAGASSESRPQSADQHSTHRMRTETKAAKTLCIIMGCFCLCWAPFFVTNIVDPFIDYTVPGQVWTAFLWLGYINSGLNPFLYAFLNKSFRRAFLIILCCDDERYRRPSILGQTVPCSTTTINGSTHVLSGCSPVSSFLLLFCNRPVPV
Assay [3] has as its target T2, 5-HT2B receptor. As to the kind of experiment: 5-HT2B binding affinity of racemic verapamil and other calcium channel blockers (5-HT control, Bonhaus method). Also on record: expressed in transfected cells; host or cells: CHO cells. The note with it: relative potency compared to CCB, Table 2. As to the method: as §1
Assay [4] has as its target L-type calcium channel binding (CCB) site (Rattus norvegicus, UniProt P22002). As to the kind of experiment: L-type calcium channel binding (CCB) affinity. The note with it: rat cerebral cortex; relevant L-type calcium channel site of each blocker. Here is the method:
as §1
The binding activity of the reported receptors was analyzed using the following methods.
There are three distinct binding sites on the L-type calcium channel receptor. Further, the binding affinity at a particular site can be allosterically modulated by binding at one of the other sites. Thus, testing included the affinity of the different types of calcium channel blockers at their particular site of interaction.

The target of assay [5] is melatonin ML-1. As to the kind of experiment: Melatonin ML1 binding affinity. Also on record: species or system chicken. The note with it: relative potency compared to CCB, Table 2. Here is the method: as §1

Read-outs that look alike come from different tables or passages of the source.

T2 sequence (P41595 whole entry): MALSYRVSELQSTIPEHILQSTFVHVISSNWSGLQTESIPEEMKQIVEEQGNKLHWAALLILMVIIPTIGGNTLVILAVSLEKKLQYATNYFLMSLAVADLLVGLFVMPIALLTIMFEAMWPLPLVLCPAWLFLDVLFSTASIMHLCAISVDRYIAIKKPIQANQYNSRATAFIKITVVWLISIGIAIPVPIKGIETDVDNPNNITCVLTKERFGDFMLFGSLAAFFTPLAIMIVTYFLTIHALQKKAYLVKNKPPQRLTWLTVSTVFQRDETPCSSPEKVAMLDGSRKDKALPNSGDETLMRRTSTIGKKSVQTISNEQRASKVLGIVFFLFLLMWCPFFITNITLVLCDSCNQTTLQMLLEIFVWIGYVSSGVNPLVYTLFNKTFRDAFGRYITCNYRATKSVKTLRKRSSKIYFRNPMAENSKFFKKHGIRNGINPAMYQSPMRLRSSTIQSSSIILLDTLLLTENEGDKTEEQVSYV
Sequence of 5-HT1D receptor (P28221 whole entry): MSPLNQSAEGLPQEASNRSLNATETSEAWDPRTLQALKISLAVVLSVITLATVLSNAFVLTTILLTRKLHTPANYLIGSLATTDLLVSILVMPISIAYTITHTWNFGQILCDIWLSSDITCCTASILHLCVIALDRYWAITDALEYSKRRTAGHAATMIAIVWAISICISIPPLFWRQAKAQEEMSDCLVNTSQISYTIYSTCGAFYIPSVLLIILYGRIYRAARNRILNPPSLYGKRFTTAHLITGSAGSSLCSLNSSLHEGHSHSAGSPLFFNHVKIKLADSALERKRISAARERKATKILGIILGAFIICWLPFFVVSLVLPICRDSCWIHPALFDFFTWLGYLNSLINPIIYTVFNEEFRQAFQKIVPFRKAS
Sequence of L-type calcium channel binding (CCB) site (P22002 whole entry): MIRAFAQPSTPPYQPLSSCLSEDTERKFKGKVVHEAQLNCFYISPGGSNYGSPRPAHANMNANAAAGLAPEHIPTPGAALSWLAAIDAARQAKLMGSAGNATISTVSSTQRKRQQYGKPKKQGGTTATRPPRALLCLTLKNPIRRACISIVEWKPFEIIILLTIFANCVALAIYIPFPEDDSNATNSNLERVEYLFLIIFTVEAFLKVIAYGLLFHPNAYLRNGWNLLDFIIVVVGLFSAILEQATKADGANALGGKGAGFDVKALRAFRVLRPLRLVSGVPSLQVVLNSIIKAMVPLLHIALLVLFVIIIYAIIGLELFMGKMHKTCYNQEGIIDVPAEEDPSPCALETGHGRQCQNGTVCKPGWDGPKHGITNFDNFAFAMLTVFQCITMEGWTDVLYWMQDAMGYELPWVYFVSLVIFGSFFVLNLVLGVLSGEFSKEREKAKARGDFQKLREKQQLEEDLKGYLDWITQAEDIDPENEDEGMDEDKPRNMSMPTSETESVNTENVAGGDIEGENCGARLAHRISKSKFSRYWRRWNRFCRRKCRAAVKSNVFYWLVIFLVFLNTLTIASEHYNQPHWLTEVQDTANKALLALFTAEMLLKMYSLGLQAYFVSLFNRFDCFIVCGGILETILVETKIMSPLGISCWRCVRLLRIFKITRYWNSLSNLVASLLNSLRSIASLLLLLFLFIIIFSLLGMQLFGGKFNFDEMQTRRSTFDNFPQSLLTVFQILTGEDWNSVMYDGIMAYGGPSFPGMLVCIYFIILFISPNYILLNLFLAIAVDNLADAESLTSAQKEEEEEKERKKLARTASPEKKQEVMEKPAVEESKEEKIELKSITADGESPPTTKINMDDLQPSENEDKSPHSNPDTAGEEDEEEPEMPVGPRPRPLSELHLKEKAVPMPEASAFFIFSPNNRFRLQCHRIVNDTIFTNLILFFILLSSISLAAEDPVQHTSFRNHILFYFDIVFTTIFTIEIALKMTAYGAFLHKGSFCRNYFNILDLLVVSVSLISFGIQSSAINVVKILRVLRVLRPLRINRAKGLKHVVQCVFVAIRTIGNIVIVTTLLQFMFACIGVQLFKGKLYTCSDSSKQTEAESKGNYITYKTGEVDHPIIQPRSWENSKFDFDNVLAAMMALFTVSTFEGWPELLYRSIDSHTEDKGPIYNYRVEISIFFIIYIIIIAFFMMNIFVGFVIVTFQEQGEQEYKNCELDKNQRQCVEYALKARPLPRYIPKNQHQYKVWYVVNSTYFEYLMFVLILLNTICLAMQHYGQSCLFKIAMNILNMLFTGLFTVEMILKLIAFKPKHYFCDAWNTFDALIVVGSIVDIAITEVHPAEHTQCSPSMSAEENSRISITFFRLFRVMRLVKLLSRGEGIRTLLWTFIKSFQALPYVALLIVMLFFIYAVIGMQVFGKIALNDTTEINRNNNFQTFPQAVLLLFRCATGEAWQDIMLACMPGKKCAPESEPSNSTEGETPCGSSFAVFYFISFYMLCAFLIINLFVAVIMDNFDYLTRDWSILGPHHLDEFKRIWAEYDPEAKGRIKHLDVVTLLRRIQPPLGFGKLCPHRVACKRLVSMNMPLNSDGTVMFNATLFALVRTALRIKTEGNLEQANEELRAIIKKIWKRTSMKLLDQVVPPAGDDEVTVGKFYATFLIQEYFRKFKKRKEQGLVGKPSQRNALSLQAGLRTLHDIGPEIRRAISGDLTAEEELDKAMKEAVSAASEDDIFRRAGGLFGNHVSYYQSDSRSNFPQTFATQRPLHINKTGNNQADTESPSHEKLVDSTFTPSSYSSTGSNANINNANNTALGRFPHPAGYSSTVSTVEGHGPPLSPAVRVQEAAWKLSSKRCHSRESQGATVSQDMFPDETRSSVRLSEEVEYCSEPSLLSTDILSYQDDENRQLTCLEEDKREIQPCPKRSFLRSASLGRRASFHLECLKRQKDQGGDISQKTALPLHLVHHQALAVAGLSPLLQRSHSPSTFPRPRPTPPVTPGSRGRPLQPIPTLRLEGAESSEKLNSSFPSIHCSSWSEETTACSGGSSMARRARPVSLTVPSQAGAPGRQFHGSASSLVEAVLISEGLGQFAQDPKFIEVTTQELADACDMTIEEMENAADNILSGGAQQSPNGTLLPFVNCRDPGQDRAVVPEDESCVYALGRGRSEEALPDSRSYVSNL
Sequence of 5-HT6 receptor (P50406 whole entry): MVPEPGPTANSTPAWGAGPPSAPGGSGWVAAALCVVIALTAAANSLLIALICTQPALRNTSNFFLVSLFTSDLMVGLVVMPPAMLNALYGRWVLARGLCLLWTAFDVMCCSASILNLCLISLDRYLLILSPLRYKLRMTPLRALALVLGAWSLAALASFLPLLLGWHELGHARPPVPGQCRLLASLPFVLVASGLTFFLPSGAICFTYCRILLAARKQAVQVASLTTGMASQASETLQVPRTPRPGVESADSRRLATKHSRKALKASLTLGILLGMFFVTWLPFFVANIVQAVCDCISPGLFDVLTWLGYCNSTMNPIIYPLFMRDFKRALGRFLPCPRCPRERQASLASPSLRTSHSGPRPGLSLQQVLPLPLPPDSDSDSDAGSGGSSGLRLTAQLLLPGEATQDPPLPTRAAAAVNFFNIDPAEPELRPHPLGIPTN

In the case of `COc1ccc([C@@H]2Sc3ccccc3N(CCN(C)C)C(=O)[C@@H]2OC(C)=O)cc1` [Diltiazem], the “percentage of binding, ML-1” value in the assay on melatonin ML-1 [1] (at 100×10^−7 M) was >100(9%).
The IC50 is the concentration needed to halve the response being measured. Regarding `COc1ccc(CCN(C)CCC[C@](C#N)(c2ccc(OC)c(OC)c2)C(C)C)cc1OC` [(R)-verapamil], the half-inhibitory concentration (IC50) at Na channel stood at 1.8 µM. Further, the “percentage of binding, 5-HT1D” value on 5-HT1D receptor is recorded as >100(17%). Moreover, the “percentage of binding, 5-HT6” value at 5-HT6 receptor is >100(47%). For the same molecule, the “percentage of binding, 5-HT5A” value on 5-HT5A receptor is >100(19%). For the same molecule, the “% Binding, 5-HT2B” value at 5-HT2B receptor [2] (at 0.1 (×10^−7 M)) is reported as 0%; at 5-HT2B receptor [2] (at 0.3 (×10^−7 M)) it was 10%; on 5-HT2B receptor [2] (at 1.0 (×10^−7 M)), 39%; on 5-HT2B receptor [2] (at 3.0 (×10^−7 M)), 68%. At 5-HT4E receptor, the “percentage of binding, 5-HT4E” value is recorded as >100(24%).
Take `COC(=O)C1=C(C)NC(C)=C(C(=O)OC(C)C)C1c1cccc2nonc12` (centres unmarked) [Isradipine]: on 5-HT2B receptor [3], the “(IC50: 5-HT2B)/(IC50: CCB)” value was 21,739. In addition, the IC50 in assay [4] worked out at 0.00046 µM; at melatonin ML-1 [1] (chicken brain), 2 µM. Moreover, the “(IC50: ML-1)/(IC50: CCB)” value on melatonin ML-1 [5] is recorded as 4,348.
